row,SMILES,glass transition temperature [°C]
1,*CCCCCCCCCCCCNC(=O)c1ccc(C(=O)N*)c(Oc2ccccc2)c1 (repeat unit),75.00
2,*c1ccc2c(c1)C(=O)N(c1cccc(Oc3ccc(C(c4ccc(Oc5cccc(N6C(=O)c7ccc(C(*)(C(F)(F)F)C(F)(F)F)cc7C6=O)c5)cc4)(C(F)(F)F)C(F)(F)F)cc3)c1)C2=O (repeat unit),224.00
3,*CC(*)c1ccccc1COCCCCC (repeat unit),47.00
4,*c1cccc(NC(=O)c2ccc(OCCOCCOCCOCCOCCOc3ccc(C(=O)Nc4ccc5[nH]c(*)nc5c4)cc3)cc2)c1 (repeat unit),140.00
5,*C[Si](*)(C)C (repeat unit),-90.00
6,*c1ccc(Oc2ccc(-c3nc4ccc(Oc5ccc(N6C(=O)c7ccc(C(c8ccc9c(c8)C(=O)N(c8ccc(Oc%10ccc%11nc(*)c(-c%12ccccc%12)nc%11c%10)cc8)C9=O)(C(F)(F)F)C(F)(F)F)cc7C6=O)cc5)cc4nc3-c3ccccc3)cc2)cc1 (repeat unit),267.00
7,*CC(*)(C)CCC (repeat unit),27.00
8,*c1cccc(N2C(=O)c3cccc(Oc4ccc(Sc5ccc(Oc6cccc7c6C(=O)N(*)C7=O)cc5)cc4)c3C2=O)c1 (repeat unit),231.00
9,*OC(COC(=O)c1cc(C(*)=O)cc(C(C)(C)C)c1)COc1ccc(/N=N/c2ccc(C#N)cc2)cc1 (repeat unit),137.00
10,*Oc1ccc(S(=O)(=O)c2ccc(Oc3ccc(C(C)(C)c4ccc(Oc5ccc(C(=O)c6ccc(*)cc6)cc5)cc4)cc3)cc2)cc1 (repeat unit),175.00
11,*CC(*)OC(=O)C(C)(C)CC(C)(C)C (repeat unit),55.00
12,*c1ccc([Si](*)(C)C)s1 (repeat unit),21.00
13,*CC(*)C(=O)OCc1ccc(C#N)cc1 (repeat unit),44.00
14,*OC1CCC(OC(=O)OCCCCCCCOC(*)=O)CC1 (repeat unit),-5.00
15,*c1ccc(S(=O)(=O)c2ccc(-n3nc(-c4ccc(Oc5ccc(-c6nn(*)c(=O)c7ccccc67)cc5)cc4)c4ccccc4c3=O)cc2)cc1 (repeat unit),295.00
16,*CC(C)(C)C1C(=O)N(c2c(C)cccc2C)C(=O)C1* (repeat unit),237.00
17,*/C(OC)=C(\OC)c1ccc(*)s1 (repeat unit),91.00

# Second part, the molecule after the results:
row,glass transition temperature [°C],SMILES
1,79.00,*Oc1ccc(C2(c3ccc(OC(*)=S)cc3)CCCC2)cc1 (repeat unit)
2,135.00,*CCCCCCCCCN1C(=O)c2ccc(C(c3ccc4c(c3)C(=O)N(*)C4=O)(C(F)(F)F)C(F)(F)F)cc2C1=O (repeat unit)
3,68.00,*CC(*)c1ccccc1C(=O)OCCC(C)C (repeat unit)
4,161.00,*Oc1ccc(C2(c3ccc(OC(*)=O)c(C)c3)CC3CCC2C3)cc1C (repeat unit)
5,-56.00,*O[Si](*)(C)CCCCCCCCCCCOC(=O)c1cc(OC(=O)c2ccc(OCCOCCOCCOCCOCCOCCOCCOCCOC)cc2)ccc1OC(=O)c1ccc(OCCOCCOCCOCCOCCOCCOCCOCCOC)cc1 (repeat unit)
6,129.00,*c1ccc(/C=N/c2ccc(C(c3ccccc3)c3ccc(/N=C/c4ccc(-c5ccc(*)s5)cc4)cc3)cc2)cc1 (repeat unit)
7,321.00,*c1ccc2c(c1)C(=O)N(c1ccc(N(c3ccc(C#N)cc3)c3ccc(N4C(=O)c5ccc(C(*)(C(F)(F)F)C(F)(F)F)cc5C4=O)cc3)cc1)C2=O (repeat unit)
8,400.00,*c1ccc(Sc2ccc(-n3c(=O)c4cc5c(=O)n(*)c(=O)c5cc4c3=O)cc2)cc1 (repeat unit)
9,258.00,*c1ccc(Oc2ccc(N3C(=O)c4ccc(Sc5ccc6c(c5)C(=O)N(*)C6=O)cc4C3=O)cc2)cc1 (repeat unit)
10,95.50,*=CNc1ccc(Cc2ccc(N=*)cc2)cc1 (repeat unit)

# From the PolyMetriX glass transition set
